Assay results published in patent publication US20250368609A1, “TRIAZINANE COMPOUND AND COMPOSITION CONTAINING SAME” (SUMITOMO CHEMICAL COMPANY, LIMITED, priority 2022, published 2025).

How the values were obtained:
[1] = system: waterhemp (Amaranthus tuberculatus=A. rudis); assay: Test method 3: upland field, post-emergence foliar application test, herbicidal efficacy against waterhemp; assay type: in vivo; conditions: scale 0 to 10
[2] = system: velvetleaf; assay: Test method 3: upland field, post-emergence foliar application test, herbicidal efficacy against velvetleaf; assay type: in vivo, Abutilon theophrasti; parameters: key: if there is no or almost no difference in the state of emergence or growth of test weeds at the time of investigation as compared with that of test weeds in an untreated control, the evaluation of the herbicidal efficacy is classified as “0”; if the test weeds are completely withered or emergence or growth of the test weeds is suppressed, the evaluation of the herbicidal efficacy is classified as “10”; conditions: scale 0 to 10
[3] = system: velvetleaf (Abutilon theophrasti); assay: Test method 1: upland field, post-emergence foliar application test (velvetleaf); assay type: in vivo; parameters: key: if there is no or almost no difference in the state of emergence or growth of test weeds at the time of investigation as compared with that of test weeds in an untreated control, the evaluation of the herbicidal efficacy is classified as “0”; if the test weeds are completely withered or emergence or growth of the test weeds is suppressed, the evaluation of the herbicidal efficacy is classified as “10”; conditions: scale 0 to 10
Text: Next, the herbicidal efficacy of the compound of the present invention is shown by test examples. In the following test examples, the evaluation of the herbicidal efficacy is classified into 0 to 10, where if there is no or almost no difference in the state of emergence or growth of test weeds at the time of investigation as compared with that of test weeds in an untreated control, the evaluation of the herbicidal efficacy is classified as “0”, and if the test weeds are completely withered or emergence or growth of the test weeds is suppressed, the evaluation of the herbicidal efficacy is classified as “10”. A pot is filled with a commercially available culture soil, and seeds of velvetleaf (Abutilon theophrasti) are sown in the pot. Thereafter, the seeds are covered with approximately 0.5 cm of soil, and each of the seeds is cultivated in a greenhouse for 13 days. Next, a predetermined amount of the test compound is dissolved in 1 mL of a DMF solution containing 2% of an adjuvant, and 18 mL of water is added thereto, thereby preparing a diluent. The diluent is uniformly sprayed over plants so as to give the plants a predetermined treatment amount. Thereafter, the plants are cultivated in the greenhouse for 20 days, and herbicidal efficacy is evaluated.

[4] = system: corn (Zea mays); conditions: in vivo, 7 days

Structure (SMILES): C=CCOC(=O)C1(Oc2cc(-n3c(=O)cc(C(F)(F)F)n(C)c3=O)c(F)cc2Cl)CC1 [Compound B-1]
- Herbicidal efficacy Waterhemp 1 WAT ([1]; dosage 16 gAI/ha): 9
- Herbicidal efficacy Waterhemp 1 WAT ([1]; dosage 32 gAI/ha): 9
- Herbicidal efficacy Velvetleaf 1 WAT ([2]; dosage 16 gAI/ha): 10
- Herbicidal efficacy Velvetleaf 1 WAT ([2]; dosage 32 gAI/ha): 10

Structure (SMILES): CCOC(=O)COC(=O)C1(Oc2cc(-n3c(=O)cc(C(F)(F)F)n(C)c3=O)c(F)cc2Cl)CC1 [Compound B-2]
- Herbicidal efficacy Waterhemp 1 WAT ([1]; dosage 8 gAI/ha): 9
- Herbicidal efficacy Waterhemp 1 WAT ([1]; dosage 16 gAI/ha): 9
- Herbicidal efficacy Velvetleaf 1 WAT ([2]; dosage 8 gAI/ha): 10
- Herbicidal efficacy Velvetleaf 1 WAT ([2]; dosage 16 gAI/ha): 10

Structure (SMILES): Cn1c(=S)n(C)c(=O)n(-c2cc(OC3CCCC3)c(Cl)cc2F)c1=O [Compound C-1]
- Herbicidal efficacy Velvetleaf 3 WAT ([3]; dosage 1 gAI/ha): 1
- Herbicidal efficacy Velvetleaf 3 WAT ([3]; dosage 2 gAI/ha): 1

Structure (SMILES): C=CCOC(=O)C(C)Oc1cc(-n2c(=O)n(C)c(=S)n(C)c2=O)c(F)cc1Cl (stereo not shown) [Compound C-2]
- Herbicidal efficacy Velvetleaf 3 WAT ([3]; dosage 1 gAI/ha): 1
- Herbicidal efficacy Velvetleaf 3 WAT ([3]; dosage 2 gAI/ha): 1

Structure (SMILES): CCOCCOC(=O)C(C)Oc1cc(-n2c(=O)n(C)c(=S)n(C)c2=O)c(F)cc1Cl (stereo not shown) [Compound C-3]
- Herbicidal efficacy Velvetleaf 3 WAT ([3]; dosage 1 gAI/ha): 1
- Herbicidal efficacy Velvetleaf 3 WAT ([3]; dosage 2 gAI/ha): 1

Structure (SMILES): C=CCOC(=O)C1(Oc2cc(-n3c(=O)n(C)c(=S)n(C)c3=O)c(F)cc2Cl)CC1 [Compound I-5]
- Herbicidal efficacy Waterhemp 1 WAT ([1]; dosage 16 gAI/ha): 9
- Herbicidal efficacy Waterhemp 1 WAT ([1]; dosage 32 gAI/ha): 9
- Herbicidal efficacy Velvetleaf 3 WAT ([3]; dosage 1 gAI/ha): 10
- Herbicidal efficacy Velvetleaf 3 WAT ([3]; dosage 2 gAI/ha): 10
- Phytotoxicity Corn 1 WAT [4]: 1
- Herbicidal efficacy Velvetleaf 1 WAT ([2]; dosage 16 gAI/ha): 10
- Herbicidal efficacy Velvetleaf 1 WAT ([2]; dosage 32 gAI/ha): 10

Structure (SMILES): CCOC(=O)COC(=O)C1(Oc2cc(-n3c(=O)n(C)c(=S)n(C)c3=O)c(F)cc2Cl)CC1 [Compound I-14]
- Herbicidal efficacy Waterhemp 1 WAT ([1]; dosage 8 gAI/ha): 9
- Herbicidal efficacy Waterhemp 1 WAT ([1]; dosage 16 gAI/ha): 9
- Herbicidal efficacy Velvetleaf 3 WAT ([3]; dosage 1 gAI/ha): 10
- Herbicidal efficacy Velvetleaf 3 WAT ([3]; dosage 2 gAI/ha): 10
- Phytotoxicity Corn 1 WAT [4]: 1
- Herbicidal efficacy Velvetleaf 1 WAT ([2]; dosage 8 gAI/ha): 10
- Herbicidal efficacy Velvetleaf 1 WAT ([2]; dosage 16 gAI/ha): 10
